Experimental data: patent US8779092B2, “Metastasis-specific peptides and their diagnostic and therapeutic applications” (Universita Degli Studi di Torino, priority 2006, dated 2014)

Tested on: primary cells of hepatic metastasis
Assay: Binding experiments on primary cells
Design: species or system human
Details: for binding of phage clone to primary hepatic metastasis cells, summary over samples: all tested patient samples; for binding of phage clone to primary hepatic metastasis cells: compared to normal liver of the same patient
Method: Samples were processed immediately after surgical removal, in order to disaggregate the tissues and extract single cells on which to perform the experiments. All the manipulations were performed under laminar flux in sterility. Samples were chopped with a scalpel in a small volume of PBS. The suspension, collected in PBS, was centrifuged for 3 minutes at 100 rpm at room temperature and the pellet was resuspended in 5 ml of collagenase (0.25% weight/volume in DMEM). The digestion of the tissue fragments was done incubating this suspension for 2 hours at 37° C. while shaking. The sample was again centrifuged, to eliminate all the particulate under the cell size (lipid aggregates, cell portions) or also smaller cells, of hematopoietic origin. Pellet was washed twice in PBS. Cells were filtered on filters with a diameter of 45 μm, counted in Burker chamber and resuspended at a concentration of 10^6/ml in DMEM/FCS/HEPES.
These assays were performed with an Input of 10^9 TU of each clone, on cells from the hepatic metastasis cell line (target) and on cells from normal liver (negative control). The Output of these experiments was normalized on binding to an insertless phage, fd-tet, giving a measure of the unspecific interaction due to the phage itself. The binding increase was evaluated as ratio between normalized Output of the target and normalized Output of the negative control. All the experiments were repeated at least 3 times, when possible for material availability.
To evaluate if the selected inserts were specific for ubiquitous surface determinants in human hepatic metastases, the 7 selected clones were tested on primary cells of hepatic metastasis, comparing to normal liver of the same patients. For these binding assays, samples from 9 patients were used (20, 21, 22, 25, 26, 27, 28, 31, 32), with the same conditions described for the cell lines.
In the first experiments, due to the low cell numbers, related to the set up phase of the purification procedure, the binding of only some clones was evaluated. In general, 3 assays have been performed for each sample. […] It is interesting to note that, in the experiments on fresh cells, binding increases are much higher than in those performed with the cultured cell lines.

Substance | binding of phage clone to primary hepatic metastasis cells, summary over samples | binding of phage clone to primary hepatic metastasis cells (patient P#27) | binding of phage clone to primary hepatic metastasis cells (patient P#28)
ARPGLRS (listed as Homo sapiens) [SEQ ID NO. 1] | worked on all the samples | – | –
GIYRLRS ((6)..(6) May be fused with GST; listed as Homo sapiens) [SEQ ID NO. 6] | worked on all the samples | – | –
GVYSLRS (listed as Homo sapiens) [SEQ ID NO. 7] | worked on all the samples | – | –
LRPGLRS (listed as Homo sapiens) [SEQ ID NO. 3] | worked on all the samples | – | –
MRYALRS (listed as Homo sapiens) [SEQ ID NO. 2] | – | negative | negative
